{"source": "ChEMBL document CHEMBL1255402", "about": "“Staphylococcal cassette chromosome mec-like element in Macrococcus caseolyticus” (2010)", "assay_type_in_all_cases": "functional", "conditions_in_all_cases": "Macrococcoides caseolyticum", "key": {"Macrococcus caseolyticus [1]": {"tested_on": "Macrococcus caseolyticus", "assay": "Antimicrobial activity against multidrug-resistant Macrococcus caseolyticus JCSC7528 containing plasmid pMCCL2 which carries transposon containing (mecA(m)-mecR1(m)-mecI(m)-blaZ(m)) complex isolated from chicken by agar dilution method"}, "Macrococcus caseolyticus [2]": {"tested_on": "Macrococcus caseolyticus", "assay": "Antimicrobial activity against Macrococcus caseolyticus ATCC 51835 by agar dilution method"}, "Macrococcus caseolyticus [3]": {"tested_on": "Macrococcus caseolyticus", "assay": "Antimicrobial activity against multidrug-resistant Macrococcus caseolyticus JCSC5402 containing plasmid pMCCL2 which carries transposon containing (mecA(m)-mecR1(m)-mecI(m)-blaZ(m)) complex isolated from chicken by agar dilution method"}, "Macrococcus caseolyticus [4]": {"tested_on": "Macrococcus caseolyticus", "assay": "Antimicrobial activity against multidrug-resistant Macrococcus caseolyticus JCSC7096 containing plasmid pMCCL2 which carries transposon containing (mecA(m)-mecR1(m)-mecI(m)-blaZ(m)) complex isolated from chicken by agar dilution method"}, "Macrococcus caseolyticus [5]": {"tested_on": "Macrococcus caseolyticus", "assay": "Antimicrobial activity against Macrococcus caseolyticus ATCC 51834 by agar dilution method"}, "Macrococcus caseolyticus [6]": {"tested_on": "Macrococcus caseolyticus", "assay": "Antimicrobial activity against Macrococcus caseolyticus ATCC 13548T by agar dilution method"}, "Macrococcus caseolyticus [7]": {"tested_on": "Macrococcus caseolyticus", "assay": "Antimicrobial activity against Macrococcus caseolyticus ATCC 29750 by agar dilution method"}}, "data": [{"smiles": "Cc1onc(-c2ccccc2)c1C(=O)N[C@@H]1C(=O)N2[C@@H]1SC(C)(C)[C@@H]2C(=O)O", "note": "[OXACILLIN]", "values": [{"measurement": "MIC", "setting": "Macrococcus caseolyticus [1]", "result": 32, "unit": "µg/mL"}, {"measurement": "MIC", "setting": "Macrococcus caseolyticus [2]", "result": 0.25, "unit": "µg/mL"}, {"measurement": "MIC", "setting": "Macrococcus caseolyticus [3]", "result": 128, "unit": "µg/mL"}, {"measurement": "MIC", "setting": "Macrococcus caseolyticus [4]", "result": 64, "unit": "µg/mL"}, {"measurement": "MIC", "setting": "Macrococcus caseolyticus [5]", "result": 0.125, "unit": "µg/mL"}, {"measurement": "MIC", "setting": "Macrococcus caseolyticus [6]", "result": 0.125, "unit": "µg/mL"}, {"measurement": "MIC", "setting": "Macrococcus caseolyticus [7]", "result": 0.125, "unit": "µg/mL"}]}]}
